IC50 and melting point data for twelve molecules are collected here from paper PMC5640562, “Synthesis and anticancer activity of novel quinazolinone-based rhodanines” (Chemistry Central Journal, 2017).

The subject of the first data set is HT-1080 cells. Put plainly: MTT cytotoxicity assay, HT-1080 fibrosarcoma cells. Type of data set: cell-based, human. As to conditions: Homo sapiens, HT-1080, 72 h, 3 days incubation, mean of three independent experiments (± standard deviation). On the procedure: The compounds were tested for their cytotoxic activity on a solid tumor cell line, i.e. HT-1080 originating from a fibrosarcoma (American Type Culture Collection; ATCC, Rockville, MD, USA), and on two leukemia cell lines, i.e. the HL-60 human promyelocytic leukemia (European Collection of Animal Cell Cultures; ECACC, Salisbury, UK) and the K-562 human chronic myelogenous leukemia (ATCC). Furthermore, the human skin fibroblast strain AG01523 (Coriell Institute for Medical Research, Camden, NJ, USA) was also used as normal control. Adherent cells were routinely cultured in Dulbecco’s […] (DMEM), and leukemia cells in RPMI 1640, in an environment of 5% CO2, 85% humidity, and 37 °C. All media were supplemented with penicillin (100 U/ml), streptomycin (100 μg/ml) (media and antibiotics from Biochrom KG, Berlin, Germany), and 10% fetal bovine serum (Life Technologies Europe BV, Thessaloniki, Greece). Adherent cells were subcultured using a trypsin (0.25%; Life Technologies Europe BV)—citrate (0.30%; Sigma, St. Louis, MO, USA) solution. The cytotoxicity assay was performed by a modification of the MTT method. Briefly, the cells were plated in flat-bottomed 96-well microplates at a density of 5000 cells/well, and incubated overnight before the addition of serial dilutions of the test compounds. The cells were incubated with the compounds or the corresponding vehicle (DMSO) concentrations for 3 days. Then, the medium was replaced with MTT (Sigma) in serum-free, phenol-red-free DMEM (1 mg/ml). After incubation for 4 h, the MTT formazan was solubilized in 2-propanol, and the optical density was measured using a FLUOstar Optima (BMG Labtech, Ortenberg, Germany) microplate reader at a wavelength of 550 nm (reference wavelength 660 nm). Doxorubicin hydrochloride (Sigma) was included in the experiments as positive control. The results represent the mean of three independent experiments and are expressed as IC50 [42].
(Formazan colour is commonly taken as a measure of viable cells.)
`O=C1NC(=S)SC1=Cc1ccc(OCc2nc3ccccc3c(=O)n2-c2ccc(F)cc2)cc1` [Compound 32, 5-{4-[(3-(4-Fluorophenyl)-4-oxo-3,4-dihydroquinazolin-2-yl)methoxy]benzylidene}-2-thioxothiazolidin-4-one]: the IC50 was determined as 47.3 µM. The same measure, in the same setting: the result for `O=C1NC(=S)SC1=Cc1ccc(OCc2nc3ccccc3c(=O)n2-c2ccc(Br)cc2)cc1` [Compound 35, 5-{4-[(3-(4-Bromophenyl)-4-oxo-3,4-dihydroquinazolin-2-yl)methoxy]benzylidene}-2-thioxothiazolidin-4-one] reads 28.8 µM; that for `O=C1NC(=S)SC1=Cc1ccc(OCc2nc3ccccc3c(=O)n2-c2ccc(Cl)cc2)cc1` [Compound 33, 5-{4-[(3-(4-Chlorophenyl)-4-oxo-3,4-dihydroquinazolin-2-yl)methoxy]benzylidene}-2-thioxothiazolidin-4-one], 35.3 µM; that for `COc1cc(C=C2SC(=S)NC2=O)ccc1OCc1nc2ccccc2c(=O)n1-c1cccc(C)c1` [Compound 49, 5-{4-[(3-(3-Methylphenyl)-4-oxo-3,4-dihydroquinazolin-2-yl)methoxy]-3-methoxybenzylidene}-2-thioxothiazolidin-4-one], 30.7 µM. In the case of `Cc1ccc(-n2c(COc3ccc(C=C4SC(=S)NC4=O)cc3)nc3ccccc3c2=O)cc1` [Compound 38, 5-{4-[(3-(4-Methylphenyl)-4-oxo-3,4-dihydroquinazolin-2-yl)methoxy]benzylidene}-2-thioxothiazolidin-4-one], the IC50 stood at 35.7 µM. On the same count and under the same terms, the result for `O=C1NC(=S)SC1=Cc1ccc(OCc2nc3ccccc3c(=O)n2-c2cccc(Cl)c2)cc1` [Compound 34, 5-{4-[(3-(3-Chlorophenyl)-4-oxo-3,4-dihydroquinazolin-2-yl)methoxy]benzylidene}-2-thioxothiazolidin-4-one] reads 57.1 µM. On the same count and under the same terms, the result for `COc1cc(C=C2SC(=S)NC2=O)ccc1OCc1nc2ccccc2c(=O)n1-c1ccccc1` [Compound 41, 5-{4-[(3-Phenyl-4-oxo-3,4-dihydroquinazolin-2-yl)methoxy]-3-methoxybenzylidene}-2-thioxothiazolidin-4-one] reads 36.1 µM; that for `COc1cc(C=C2SC(=S)NC2=O)ccc1OCc1nc2ccccc2c(=O)n1-c1ccc(C)cc1` [Compound 48, 5-{4-[(3-(4-Methylphenyl)-4-oxo-3,4-dihydroquinazolin-2-yl)methoxy]-3-methoxybenzylidene}-2-thioxothiazolidin-4-one], 31.5 µM; that for `COc1cc(C=C2SC(=S)NC2=O)ccc1OCc1nc2ccccc2c(=O)n1-c1cccc(Br)c1` [Compound 46, 5-{4-[(3-(3-Bromophenyl)-4-oxo-3,4-dihydroquinazolin-2-yl)methoxy]-3-methoxybenzylidene}-2-thioxothiazolidin-4-one], 23.7 µM. Still for that read-out and setting: the result for `COc1ccc(-n2c(COc3ccc(C=C4SC(=S)NC4=O)cc3OC)nc3ccccc3c2=O)cc1` [Compound 50, 5-{4-[(3-(4-Methoxyphenyl)-4-oxo-3,4-dihydroquinazolin-2-yl)methoxy]-3-methoxybenzylidene}-2-thioxothiazolidin-4-one] reads 34.7 µM; that for `O=C1NC(=S)SC1=Cc1ccc(OCc2nc3ccccc3c(=O)n2-c2cccc(Br)c2)cc1` [Compound 36, 5-{4-[(3-(3-Bromophenyl)-4-oxo-3,4-dihydroquinazolin-2-yl)methoxy]benzylidene}-2-thioxothiazolidin-4-one], 43.4 µM.

System in a further data set: not given
Assay: not given
Conditions: not given
The molecule `COc1cc(C=C2SC(=S)NC2=O)ccc1OCc1nc2ccccc2c(=O)n1-c1cccc(Br)c1` (hydrate or solvate) [Compound 46, 5-{4-[(3-(3-Bromophenyl)-4-oxo-3,4-dihydroquinazolin-2-yl)methoxy]-3-methoxybenzylidene}-2-thioxothiazolidin-4-one] gave a melting point of 243 to 245 °C.

A word on the IC50: it is the midpoint of a concentration-inhibition curve. A high value points to a need for much substance. The term melting point denotes the temperature of the solid-liquid transition.
